Measurements reported in patent US20260256792A1, “TREATMENT OF CHRONIC SPONTANEOUS URTICARIA BY ADMINISTERING (R)-2-[3-[4-AMINO-3-(2-FLUORO-4-PHENOXY-PHENYL)PYRAZOLO[3,4-D]PYRIMIDIN-1-YL]PIPERIDINE-1-CARBONYL]-4-METHYL-4-[4-(OXETAN-3-YL)PIPERAZIN-1-YL]PENT-2-ENENITRILE” (priority 2023, published 2026).

Tested on: moderate-to-severe chronic spontaneous urticaria (CSU)
Assay: Phase 2 CSU study: itch severity score over 7 days (ISS7)
Format: in vivo, human
Settings: ITT
From the text: The study comprises a 12 week, randomized, double-blind, placebo-controlled, multi-center, dose-ranging efficacy and safety phase, followed by a 40 week open label extension (OLE) phase (see FIG. 1). The study consists of three phases and an optional OLE phase. […] Clinically, CSU is characterized by the spontaneous and recurrent appearance of pruritic hives. The proposed primary endpoints were the UAS7 at Week 12 in EU and EU reference countries and the ISS7 in the US. Regardless of where a participant was from, all assessments were the same. The UAS7 score is a composite score containing both the HSS7 and the ISS7. This allowed a global assessment of the two key components of urticaria: hives and itch. […] The UAS is a validated PRO measure. […] The daily UAS scores range from 0 to 6 point/day. […] Patients were to complete the UAS using the e-diary. […] The following secondary endpoints were to be analyzed using the same approach as for the primary endpoint: • Change from baseline in UAS7 at Week 4 • Change from baseline in UAS7 at Week 12 (for US and US reference countries) • Change from baseline in ISS7 at Week 12 (except US and US reference countries) • Change from baseline in HSS7 at Week 12

Compound: CC(C)(C=C(C#N)C(=O)N1CCC[C@@H](n2nc(-c3ccc(Oc4ccccc4)cc3F)c3c(N)ncnc32)C1)N1CCN(C2COC2)CC1 [rilzabrutinib, (R)-2-[3-[4-amino-3-(2-fluoro-4-phenoxy-phenyl)pyrazolo[3,4-d]pyrimidin-1-yl]piperidine-1-carbonyl]-4-methyl-4-[4-(oxetan-3-yl)piperazin-1-yl]pent-2-enenitrile]
- ISS7 Change difference for rilzabrutinib vs. placebo LS Mean (95% CI) (400 mg BID, Week 2): −2.27
- ISS7 Change from baseline LS Mean (SE) (400 mg BID, Week 2): −5.68 (0.80)
- ISS7 Post-baseline Mean (SD) (400 mg BID, Week 2): 10.40 (5.75)
- ISS7 % Change difference for rilzabrutinib vs. placebo LS Mean (95% CI) (400 mg BID, Week 3): −18.44%
- ISS7 % Change from baseline LS Mean (SE) (400 mg BID, Week 3): −40.88 (5.26) %
- ISS7 Change difference for rilzabrutinib vs. placebo LS Mean (95% CI) (400 mg BID, Week 3): −2.60
- ISS7 Change from baseline LS Mean (SE) (400 mg BID, Week 3): −6.68 (0.84)
- ISS7 Post-baseline Mean (SD) (400 mg BID, Week 3): 9.21 (6.17)
- ISS7 % Change difference for rilzabrutinib vs. placebo LS Mean (95% CI) (400 mg BID, Week 4): −18.54%
- ISS7 % Change from baseline LS Mean (SE) (400 mg BID, Week 4): −44.30 (5.62) %
- ISS7 Change difference for rilzabrutinib vs. placebo LS Mean (95% CI) (400 mg BID, Week 4): −2.62
- ISS7 Change from baseline LS Mean (SE) (400 mg BID, Week 4): −7.24 (0.89)
- ISS7 Post-baseline Mean (SD) (400 mg BID, Week 4): 8.12 (6.28)
- ISS7 % Change difference for rilzabrutinib vs. placebo LS Mean (95% CI) (400 mg BID, Week 5): −9.84%
- ISS7 % Change from baseline LS Mean (SE) (400 mg BID, Week 5): -43.1%
- ISS7 Change difference for rilzabrutinib vs. placebo LS Mean (95% CI) (400 mg BID, Week 5): −1.32
- ISS7 Change from baseline LS Mean (SE) (400 mg BID, Week 5): −6.89 (0.88)
- ISS7 Post-baseline Mean (SD) (400 mg BID, Week 5): 8.53 (6.95)
- ISS7 % Change difference for rilzabrutinib vs. placebo LS Mean (95% CI) (400 mg BID, Week 6): −13.75%
- ISS7 % Change from baseline LS Mean (SE) (400 mg BID, Week 6): −42.18 (5.84) %
- ISS7 Change difference for rilzabrutinib vs. placebo LS Mean (95% CI) (400 mg BID, Week 6): −1.99
- ISS7 Change from baseline LS Mean (SE) (400 mg BID, Week 6): −6.87 (0.93)
- ISS7 Post-baseline Mean (SD) (400 mg BID, Week 6): 8.62 (6.58)
- ISS7 % Change difference for rilzabrutinib vs. placebo LS Mean (95% CI) (400 mg BID, Week 7): −18.93%
- ISS7 % Change from baseline LS Mean (SE) (400 mg BID, Week 7): −47.79 (5.68) %
- ISS7 Change difference for rilzabrutinib vs. placebo LS Mean (95% CI) (400 mg BID, Week 7): −2.77
- ISS7 Change from baseline LS Mean (SE) (400 mg BID, Week 7): −7.77 (0.91)
- ISS7 Post-baseline Mean (SD) (400 mg BID, Week 7): 8.03 (6.39)
- ISS7 % Change difference for rilzabrutinib vs. placebo LS Mean (95% CI) (400 mg BID, Week 8): −20.00%
- ISS7 % Change from baseline LS Mean (SE) (400 mg BID, Week 8): −52.80 (5.92) %
- ISS7 Change difference for rilzabrutinib vs. placebo LS Mean (95% CI) (400 mg BID, Week 8): −2.86
- ISS7 Change from baseline LS Mean (SE) (400 mg BID, Week 8): −8.47 (0.93)
- ISS7 Post-baseline Mean (SD) (400 mg BID, Week 8): 7.18 (6.69)
- ISS7 % Change difference for rilzabrutinib vs. placebo LS Mean (95% CI) (400 mg BID, Week 9): −20.94%
- ISS7 % Change from baseline LS Mean (SE) (400 mg BID, Week 9): −51.80 (5.94) %
- ISS7 Change difference for rilzabrutinib vs. placebo LS Mean (95% CI) (400 mg BID, Week 9): −2.77
- ISS7 Change from baseline LS Mean (SE) (400 mg BID, Week 9): −8.27 (0.96)
- ISS7 Post-baseline Mean (SD) (400 mg BID, Week 9): 7.44 (7.20)
- ISS7 % Change difference for rilzabrutinib vs. placebo LS Mean (95% CI) (400 mg BID, Week 10): −10.95%
- ISS7 % Change from baseline LS Mean (SE) (400 mg BID, Week 10): −48.75 (6.31) %
- ISS7 Change difference for rilzabrutinib vs. placebo LS Mean (95% CI) (400 mg BID, Week 10): −1.72
- ISS7 Change from baseline LS Mean (SE) (400 mg BID, Week 10): −8.01 (1.01)
- ISS7 Post-baseline Mean (SD) (400 mg BID, Week 10): 8.06 (7.29)
- ISS7 % Change difference for rilzabrutinib vs. placebo LS Mean (95% CI) (400 mg BID, Week 11): −15.82%
- ISS7 % Change from baseline LS Mean (SE) (400 mg BID, Week 11): −49.45 (6.23) %
- ISS7 Change difference for rilzabrutinib vs. placebo LS Mean (95% CI) (400 mg BID, Week 11): −2.07
- ISS7 Change from baseline LS Mean (SE) (400 mg BID, Week 11): −7.93 (0.99)
- ISS7 Post-baseline Mean (SD) (400 mg BID, Week 11): 7.76 (7.01)
- ISS7 % Change difference for rilzabrutinib vs. placebo LS Mean (95% CI) (400 mg BID, Week 12): −13.69%
- ISS7 % Change from baseline LS Mean (SE) (400 mg BID, Week 12): −50.27 (6.54) %
- ISS7 Change difference for rilzabrutinib vs. placebo LS Mean (95% CI) (400 mg BID, Week 12): −1.75
- ISS7 Change from baseline LS Mean (SE) (400 mg BID, Week 12): −8.06 (1.02)
- ISS7 Post-baseline Mean (SD) (400 mg BID, Week 12): 7.61 (7.18)
- ISS7 % Change difference for rilzabrutinib vs. placebo LS Mean (95% CI) (400 mg QPM, Week 1): −8.87%
- ISS7 % Change from baseline LS Mean (SE) (400 mg QPM, Week 1): −19.33 (5.35) %
- ISS7 Change difference for rilzabrutinib vs. placebo LS Mean (95% CI) (400 mg QPM, Week 1): −1.47
- ISS7 Change from baseline LS Mean (SE) (400 mg QPM, Week 1): −3.47 (0.79)
- ISS7 Post-baseline Mean (SD) (400 mg QPM, Week 1): 13.08 (4.46)
- ISS7 % Change difference for rilzabrutinib vs. placebo LS Mean (95% CI) (400 mg QPM, Week 2): −5.64%
- ISS7 % Change from baseline LS Mean (SE) (400 mg QPM, Week 2): −25.13 (5.32) %
- ISS7 Change difference for rilzabrutinib vs. placebo LS Mean (95% CI) (400 mg QPM, Week 2): −0.86
- ISS7 Change from baseline LS Mean (SE) (400 mg QPM, Week 2): −4.27 (0.81)
- ISS7 Post-baseline Mean (SD) (400 mg QPM, Week 2): 12.44 (4.70)
- ISS7 % Change difference for rilzabrutinib vs. placebo LS Mean (95% CI) (400 mg QPM, Week 3): −7.34%
- ISS7 % Change from baseline LS Mean (SE) (400 mg QPM, Week 3): −29.78 (5.33) %
- ISS7 Change difference for rilzabrutinib vs. placebo LS Mean (95% CI) (400 mg QPM, Week 3): −0.97
- ISS7 Change from baseline LS Mean (SE) (400 mg QPM, Week 3): −5.06 (0.85)
- ISS7 % Change difference for rilzabrutinib vs. placebo LS Mean (95% CI) (400 mg QPM, Week 4): −5.09%
- ISS7 % Change from baseline LS Mean (SE) (400 mg QPM, Week 4): −30.86 (5.64) %
- ISS7 Change difference for rilzabrutinib vs. placebo LS Mean (95% CI) (400 mg QPM, Week 4): −0.67
- ISS7 Change from baseline LS Mean (SE) (400 mg QPM, Week 4): −5.29 (0.90)
- ISS7 Post-baseline Mean (SD) (400 mg QPM, Week 4): 11.30 (4.76)
- ISS7 % Change difference for rilzabrutinib vs. placebo LS Mean (95% CI) (400 mg QPM, Week 5): 0.86%
- ISS7 % Change from baseline LS Mean (SE) (400 mg QPM, Week 5): −32.42 (5.42) %
- ISS7 Change difference for rilzabrutinib vs. placebo LS Mean (95% CI) (400 mg QPM, Week 5): 0.08
- ISS7 Change from baseline LS Mean (SE) (400 mg QPM, Week 5): −5.48 (0.88)
- ISS7 Post-baseline Mean (SD) (400 mg QPM, Week 5): 11.00 (4.61)
- ISS7 % Change difference for rilzabrutinib vs. placebo LS Mean (95% CI) (400 mg QPM, Week 6): −8.64%
- ISS7 % Change from baseline LS Mean (SE) (400 mg QPM, Week 6): −37.07 (5.96) %
- ISS7 Change difference for rilzabrutinib vs. placebo LS Mean (95% CI) (400 mg QPM, Week 6): −1.39
- ISS7 Change from baseline LS Mean (SE) (400 mg QPM, Week 6): −6.28 (0.95)
- ISS7 Post-baseline Mean (SD) (400 mg QPM, Week 6): 10.23 (5.19)
- ISS7 % Change difference for rilzabrutinib vs. placebo LS Mean (95% CI) (400 mg QPM, Week 7): −9.66%
- ISS7 % Change from baseline LS Mean (SE) (400 mg QPM, Week 7): −38.52 (5.84) %
- ISS7 Change difference for rilzabrutinib vs. placebo LS Mean (95% CI) (400 mg QPM, Week 7): −1.37
- ISS7 Change from baseline LS Mean (SE) (400 mg QPM, Week 7): −6.37 (0.93)
- ISS7 Post-baseline Mean (SD) (400 mg QPM, Week 7): 10.60 (5.27)
- ISS7 % Change difference for rilzabrutinib vs. placebo LS Mean (95% CI) (400 mg QPM, Week 8): −5.60%
- ISS7 % Change from baseline LS Mean (SE) (400 mg QPM, Week 8): −38.39 (6.03) %
- ISS7 Change difference for rilzabrutinib vs. placebo LS Mean (95% CI) (400 mg QPM, Week 8): −0.61
- ISS7 Change from baseline LS Mean (SE) (400 mg QPM, Week 8): −6.22 (0.96)
